Measurements taken from ChEMBL document CHEMBL1146401, “A bioactive seco-rosane diterpenoid from Vellozia candida” (1997).

Tests used:
Saccharomyces cerevisiae [1] = experiment: DNA damaging activity against DNA […] Saccharomyces cerevisiae RS 188N (RAD+) mutant assessed as drug level required to produce 12 mm zone of inhibition after 48 hrs; assay type: functional
Saccharomyces cerevisiae [2] = experiment: DNA damaging activity against DNA repair-deficient Saccharomyces cerevisiae RS 322YK (rad 52Y) mutant assessed as drug level required to produce 12 mm zone of inhibition after 48 hrs; assay type: functional

For `C=C[C@@]1(C)C[C@@H]2OC(=O)C3=C(CCCC3(C)C)[C@@]2(C)[C@H](C(=O)O)C1` [CANDIDALACTONE], which Activity (Saccharomyces cerevisiae [1]) is on record?
Its Activity is >200 µg/mL.

What about the Activity (Saccharomyces cerevisiae [2]) of the same molecule?
Its Activity is 87 µg/mL.
